# Measurements: paper PMC6061170, “Synthesis and biological investigations of 3β-aminotropane arylamide derivatives with atypical antipsychotic profile” (Medicinal Chemistry Research, 2018)
# Where a name gives a salt, the structure may show the parent alone. Read-outs that look alike come from different tables or passages of the source.
# Key:
# dopamine D2 receptors = dopamine D2 receptors (Rattus norvegicus, UniProt P61169); test: Radioligand binding assay, D2 receptors
# [1] = biological target: T1, serotonin 5-HT1A receptors (Rattus norvegicus, UniProt P19327); test: Radioligand binding assay, 5-HT1A receptors
# T1 construct: from tissue; host or cells: rat brain tissues
# T1 sequence (P19327 1-422): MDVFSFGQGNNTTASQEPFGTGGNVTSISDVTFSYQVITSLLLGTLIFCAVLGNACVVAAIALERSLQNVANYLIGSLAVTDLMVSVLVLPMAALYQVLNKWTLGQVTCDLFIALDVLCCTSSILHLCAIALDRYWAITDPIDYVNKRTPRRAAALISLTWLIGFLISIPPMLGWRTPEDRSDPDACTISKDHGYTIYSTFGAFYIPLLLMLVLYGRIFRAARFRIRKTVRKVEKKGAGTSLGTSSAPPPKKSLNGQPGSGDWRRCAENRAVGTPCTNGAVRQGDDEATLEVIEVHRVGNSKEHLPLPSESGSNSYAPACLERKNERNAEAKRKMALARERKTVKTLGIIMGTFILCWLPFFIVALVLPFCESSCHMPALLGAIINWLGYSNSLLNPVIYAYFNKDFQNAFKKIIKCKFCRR
# Method: All compounds were tested for their affinities for 5-HT1A, 5-HT2A, and D2 receptors according to previously described procedures (Stefanowicz et al. [2016]).
# Competition binding studies were performed according to a previously described procedure in rat brain tissues (Stefanowicz et al. [2016]).
# [2] = biological target: T2, serotonin 5-HT2A receptors (Rattus norvegicus, UniProt P14842); test: Radioligand binding assay, 5-HT2A receptors
# T2 construct: from tissue; host or cells: rat brain tissues
# [3] = rat brain tissues, read-out: D2 IC50 [nM] ± SEM
# [4] = rat brain tissues, read-out: 5-HT1A IC50 [nM] ± SEM
# [5] = rat brain tissues, read-out: 5-HT2A IC50 [nM] ± SEM
# [6] = rat brain tissues, read-out: 5-HT2A Ki [nM] ± SEM
# [7] = rat brain tissues, read-out: D2 Ki [nM] ± SEM
# [8] = rat brain tissues, read-out: 5-HT1A Ki [nM] ± SEM
# T2 sequence (P14842 whole entry): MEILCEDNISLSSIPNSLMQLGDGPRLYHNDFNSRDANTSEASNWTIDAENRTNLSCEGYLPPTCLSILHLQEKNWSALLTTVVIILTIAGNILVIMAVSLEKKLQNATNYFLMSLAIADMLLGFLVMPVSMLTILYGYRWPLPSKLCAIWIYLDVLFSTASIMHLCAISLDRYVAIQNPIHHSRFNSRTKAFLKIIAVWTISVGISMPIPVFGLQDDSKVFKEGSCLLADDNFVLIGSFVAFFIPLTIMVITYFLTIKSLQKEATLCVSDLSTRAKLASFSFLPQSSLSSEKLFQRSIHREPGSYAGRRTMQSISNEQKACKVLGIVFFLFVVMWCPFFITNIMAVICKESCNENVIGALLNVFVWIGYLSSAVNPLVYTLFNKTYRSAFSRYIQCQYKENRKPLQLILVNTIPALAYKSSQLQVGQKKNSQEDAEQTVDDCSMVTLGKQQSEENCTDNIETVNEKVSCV
# Sequence of dopamine D2 receptors (P61169 1-415 isoform P61169-2): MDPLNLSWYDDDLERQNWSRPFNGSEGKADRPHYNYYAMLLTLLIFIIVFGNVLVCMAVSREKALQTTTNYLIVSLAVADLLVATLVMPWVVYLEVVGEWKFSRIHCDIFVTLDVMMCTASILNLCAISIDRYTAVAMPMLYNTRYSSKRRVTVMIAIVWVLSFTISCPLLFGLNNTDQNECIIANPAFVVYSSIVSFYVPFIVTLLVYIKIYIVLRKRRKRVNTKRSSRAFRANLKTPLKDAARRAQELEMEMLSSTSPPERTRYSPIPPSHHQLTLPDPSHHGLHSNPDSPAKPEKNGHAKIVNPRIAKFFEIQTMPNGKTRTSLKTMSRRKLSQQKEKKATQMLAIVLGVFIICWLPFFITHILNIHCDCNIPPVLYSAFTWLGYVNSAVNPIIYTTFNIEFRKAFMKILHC
Structure (SMILES),melting point,Ki (dopamine D2 receptors),IC50 (dopamine D2 receptors; [3]),Ki [1],"IC50 [1, 4]","IC50 [2, 5]","Ki [2, 6]",Ki (dopamine D2 receptors; [7]),"Ki [1, 8]",IC50 (dopamine D2 receptors),IC50 [1],IC50 [2],Ki [2]
"Cc1ccc(CN2C3CCC2CC(NC(=O)c2ccc4ccccc4n2)C3)cc1 (stereo not drawn) (as salt: oxalate) [Compound 12i, N-[8-(4-methylbenzyl)-8-azabicyclo[3.2.1]oct-3β-yl)]-quinoline-2-carboxamide oxalate]",215 to 215.4 °C,–,–,–,–,–,–,–,–,–,–,–,–
Cc1ccccc1CN1C2CCC1CC(NC(=O)c1ccc3ccccc3n1)C2 (centres unmarked) [Compound 12a],120.8 to 121.4 °C,52 ± 4 nM,263 ± 20.5 nM,46.6 ± 2.2 nM,140 ± 6.7 nM,> 10000 nM,> 10000 nM,–,–,–,–,–,–
Cc1ccccc1CN1C2CCC1CC(NC(=O)c1cnc3ccccc3c1)C2 (centres unmarked) [Compound 12b],179.2 to 180.2 °C,–,1630 ± 23 nM,81.5 ± 5 nM,244 ± 14.9 nM,3780 ± 348 nM,1030 ± 94 nM,326 ± 4.5 nM,–,–,–,–,–
Cc1ccccc1CN1C2CCC1CC(NC(=O)c1ccc3ncccc3c1)C2 (centres unmarked) [Compound 12c],211.4 to 212.7 °C,–,1270 ± 63 nM,–,1350 ± 159 nM,> 10000 nM,> 10000 nM,254 ± 12.8 nM,450 ± 53 nM,–,–,–,–
Cc1cccc(CN2C3CCC2CC(NC(=O)c2cnc4ccccc4c2)C3)c1 (centres unmarked) [Compound 12f],194 to 194.7 °C,–,2730 ± 202 nM,84.5 ± 3.4 nM,255 ± 9.6 nM,5290 ± 148 nM,1440 ± 40.5 nM,546 ± 40.2 nM,–,–,–,–,–
Cc1cccc(CN2C3CCC2CC(NC(=O)c2ccc4ncccc4c2)C3)c1 (centres unmarked) [Compound 12g],174.4 to 175.5 °C,–,1370 ± 81.8 nM,–,867 ± 29.7 nM,> 10000 nM,> 10000 nM,275 ± 16.5 nM,289 ± 9.9 nM,–,–,–,–
Cc1ccc(CN2C3CCC2CC(NC(=O)c2cnc4ccccc4c2)C3)cc1 (centres unmarked) [Compound 12j],219.5 to 220.8 °C,45.3 ± 7.5 nM,227 ± 37.6 nM,–,493 ± 44.5 nM,> 10000 nM,> 10000 nM,–,164 ± 15 nM,–,–,–,–
Cc1ccc(CN2C3CCC2CC(NC(=O)c2ccc4ncccc4c2)C3)cc1 (centres unmarked) [Compound 12k],211.9 to 213 °C,34.2 ± 0.8 nM,172 ± 5 nM,–,1530 ± 58 nM,> 10000 nM,> 10000 nM,–,511 ± 19 nM,–,–,–,–
O=C(NC1CC2CCC(C1)N2Cc1ccccn1)c1ccc2ccccc2n1 (centres unmarked) [Compound 12l],150.2 to 151 °C,–,3080 ± 350 nM,–,665 ± 14.3 nM,> 10000 nM,> 10000 nM,616 ± 70.3 nM,221 ± 4.7 nM,–,–,–,–
O=C(NC1CC2CCC(C1)N2Cc1ccccn1)c1cnc2ccccc2c1 (centres unmarked) [Compound 12m],169.4 to 170.5 °C,–,> 10000 nM,–,850 ± 135 nM,> 10000 nM,> 10000 nM,> 10000 nM,283 ± 45 nM,–,–,–,–
O=C(NC1CC2CCC(C1)N2Cc1ccccn1)c1ccc2ncccc2c1 (centres unmarked) [Compound 12n],193.7 to 194.5 °C,> 10000 nM,–,> 10000 nM,–,–,–,–,–,> 10000 nM,> 10000 nM,> 10000 nM,> 10000 nM
COc1cc(C(=O)NC2CC3CCC(C2)N3Cc2ccccn2)nc2ccccc12 (centres unmarked) [Compound 12o],132.5 to 133 °C,–,> 10000 nM,–,453 ± 12.6 nM,> 10000 nM,> 10000 nM,> 10000 nM,151 ± 4.1 nM,–,–,–,–
O=C(NC1CC2CCC(C1)N2Cc1cccnc1)c1ccc2ccccc2n1 (centres unmarked) [Compound 12p],143 to 143.4 °C,–,5440 ± 1030 nM,–,3250 ± 122 nM,> 10000 nM,> 10000 nM,1090 ± 205 nM,1080 ± 40.5 nM,–,–,–,–
O=C(NC1CC2CCC(C1)N2Cc1cccnc1)c1cnc2ccccc2c1 (centres unmarked) [Compound 12q],138.3 to 146.2 °C,> 10000 nM,–,> 10000 nM,–,–,–,–,–,> 10000 nM,> 10000 nM,> 10000 nM,> 10000 nM
O=C(NC1CC2CCC(C1)N2Cc1cccnc1)c1ccc2ncccc2c1 (centres unmarked) [Compound 12r],158.3 to 162.5 °C,> 10000 nM,–,> 10000 nM,–,–,–,–,–,> 10000 nM,> 10000 nM,> 10000 nM,> 10000 nM
COc1cc(C(=O)NC2CC3CCC(C2)N3Cc2cccnc2)nc2ccccc12 (centres unmarked) [Compound 12s],162.6 to 165.5 °C,–,> 10000 nM,–,3750 ± 264 nM,> 10000 nM,> 10000 nM,> 10000 nM,1250 ± 88 nM,–,–,–,–
O=C(NC1CC2CCC(C1)N2Cc1ccncc1)c1ccc2ccccc2n1 (centres unmarked) [Compound 12t],143 to 145.7 °C,–,> 10000 nM,–,2430 ± 31 nM,> 10000 nM,> 10000 nM,> 10000 nM,809 ± 10.5 nM,–,–,–,–
O=C(NC1CC2CCC(C1)N2Cc1ccncc1)c1cnc2ccccc2c1 (centres unmarked) [Compound 12u],69.5 to 72 °C,> 10000 nM,–,> 10000 nM,–,–,–,–,–,> 10000 nM,> 10000 nM,4528 ± 22.5 nM,1229 ± 6 nM
O=C(NC1CC2CCC(C1)N2Cc1ccncc1)c1ccc2ncccc2c1 (centres unmarked) [Compound 12v],182 to 183.3 °C,> 10000 nM,–,> 10000 nM,–,–,–,–,–,> 10000 nM,> 10000 nM,> 10000 nM,> 10000 nM
COc1cc(C(=O)NC2CC3CCC(C2)N3Cc2ccncc2)nc2ccccc12 (centres unmarked) [Compound 12w],52 to 55 °C,–,> 10000 nM,–,942 ± 52.9 nM,> 10000 nM,> 10000 nM,> 10000 nM,314 ± 18 nM,–,–,–,–
